Test results from PubChem BioAssay AID328 (DTP/NCI, 2004).
Several values for one entry are separate records, joined by “and”; a condition that tells them apart may be missing. Equal values may be shown once. Toxic doses and inconclusive results are not listed. The calls were made as follows: active = survival T/C of 150% or more; inactive = T/C below 125% in these data.

Test system: BDF1 mice, P388 leukemia ip, median survival T/C
Assay: NCI In Vivo Anticancer Drug Screen. Data for tumor model P388 Leukemia (intraperitoneal) in B6D2F1 (BDF1) mice
Details: endpoint: median survival time, higher = longer survival
Method in brief: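 Mice carrying the transplantable tumour receive compound or vehicle. Survival is followed in each arm, and the treated measure is divided by the vehicle measure.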

[1] = dose: 100.0 mg/kg/injection, schedule: Q04DX003 (ip), vehicle: Klucel (hydroxypropylcellulose) (HPC)
[2] = dose: 200.0 mg/kg/injection, schedule: Q04DX003 (ip), vehicle: Klucel (hydroxypropylcellulose) (HPC)
[3] = dose: 100.0 mg/kg/injection, schedule: Q01DX009 (ip), vehicle: saline with Tween-80
[4] = dose: 200.0 mg/kg/injection, schedule: Q01DX009 (ip), vehicle: saline with Tween-80
[5] = dose: 400.0 mg/kg/injection, schedule: Q01DX009 (ip), vehicle: saline with Tween-80
[6] = dose: 25.0 mg/kg/injection, schedule: Q01DX001 (ip), vehicle: saline with Tween-80
[7] = dose: 50.0 mg/kg/injection, schedule: Q01DX001 (ip), vehicle: saline with Tween-80

Measured: T/C

O=[N+]([O-])c1cc([N+](=O)[O-])c(NN(c2ccc(Cl)cc2)c2ccc(Cl)cc2)c([N+](=O)[O-])c1
inactive: dose: 50.0 mg/kg/injection, schedule: Q01DX009 (ip), vehicle: Klucel (hydroxypropylcellulose) (HPC) 109 % of control | dose: 100.0 mg/kg/injection, schedule: Q01DX009 (ip), vehicle: Klucel (hydroxypropylcellulose) (HPC) 113 % of control | [1] 118 % of control | [2] 118 % of control

O=C(C(Br)C(Br)c1ccccc1)C(Br)C(Br)c1ccccc1 (stereo unspecified)
inactive: [3] 104 % of control | [4] 104 % of control | [5] 100 % of control

COc1cccc(/C=N\NC(=O)C(C)SC(C)C(=O)N/N=C/c2cccc(OC)c2)c1 (stereo unspecified)
inactive: [3] 100 % of control | [4] 104 % of control | [5] 104 % of control

Cc1cc(Cl)nc(Nc2ccccc2)n1
inactive: dose: 3.12 mg/kg/injection, schedule: Q01DX009 (ip), vehicle: DMSO 100 % of control | dose: 6.25 mg/kg/injection, schedule: Q01DX009 (ip), vehicle: DMSO 95 % of control and 100 % of control | dose: 6.25 mg/kg/injection, schedule: Q04DX003 (ip), vehicle: DMSO 100 % of control | dose: 12.5 mg/kg/injection, schedule: Q01DX009 (ip), vehicle: DMSO 100 % of control | dose: 12.5 mg/kg/injection, schedule: Q04DX003 (ip), vehicle: DMSO 108 % of control | dose: 25.0 mg/kg/injection, schedule: Q01DX009 (ip), vehicle: DMSO 95 % of control | dose: 25.0 mg/kg/injection, schedule: Q04DX003 (ip), vehicle: DMSO 91 % of control

NC1=C(c2ccccc2)C(=O)c2ccccc21
inactive: [1] 104 % of control | [2] 109 % of control | dose: 400.0 mg/kg/injection, schedule: Q04DX003 (ip), vehicle: Klucel (hydroxypropylcellulose) (HPC) 109 % of control

C=CCO
inactive: dose: 12.5 mg/kg/injection, schedule: Q01DX001 (ip), vehicle: saline with Tween-80 95 % of control | [6] 104 % of control | [7] 100 % of control

CC(C)C1(C)NC(=O)NC1=O (stereo unspecified)
inactive: dose: 100.0 mg/kg/injection, schedule: Q01DX001 (ip), vehicle: saline 113 % of control | dose: 200.0 mg/kg/injection, schedule: Q01DX001 (ip), vehicle: saline 109 % of control | dose: 400.0 mg/kg/injection, schedule: Q01DX001 (ip), vehicle: saline 95 % of control

C[N+](C)(CC(=O)Nc1ccc(Cl)c(Cl)c1)CC(=O)c1ccc(Cl)cc1
inactive: dose: 6.25 mg/kg/injection, schedule: Q04DX003 (ip), vehicle: saline 110 % of control | dose: 12.5 mg/kg/injection, schedule: Q04DX003 (ip), vehicle: saline 95 % of control | dose: 25.0 mg/kg/injection, schedule: Q04DX003 (ip), vehicle: saline 100 % of control

CCCN1CSC(=S)N(Cc2ccccc2)C1
inactive: [3] 90 % of control | dose: 100.0 mg/kg/injection, schedule: Q04DX003 (ip), vehicle: saline with Tween-80 95 % of control | [4] 100 % of control | dose: 200.0 mg/kg/injection, schedule: Q04DX003 (ip), vehicle: saline with Tween-80 95 % of control | [5] 90 % of control | dose: 400.0 mg/kg/injection, schedule: Q04DX003 (ip), vehicle: saline with Tween-80 95 % of control

Nc1cccc(/C=C/c2ccnc3ccccc23)c1
inactive: [6] 97 % of control | [7] 97 % of control | dose: 100.0 mg/kg/injection, schedule: Q01DX001 (ip), vehicle: saline with Tween-80 93 % of control and 110 % of control | dose: 200.0 mg/kg/injection, schedule: Q01DX001 (ip), vehicle: saline with Tween-80 119 % of control | dose: 400.0 mg/kg/injection, schedule: Q01DX001 (ip), vehicle: saline with Tween-80 102 % of control

COc1cc2ccc(CN3CCCC3C(=O)OCc3ccccc3)cc2cc1OC (stereo unspecified)
inactive: [3] 100 % of control | dose: 100.0 mg/kg/injection, schedule: Q04DX003 (ip), vehicle: saline 109 % of control | [4] 104 % of control | dose: 200.0 mg/kg/injection, schedule: Q04DX003 (ip), vehicle: saline 118 % of control | [5] 116 % of control | dose: 400.0 mg/kg/injection, schedule: Q04DX003 (ip), vehicle: saline 100 % of control
